Data published in paper PMC5289647, “L-glutamine Induces Expression of Listeria monocytogenes Virulence Genes” (PLoS Pathogens, 2017).
pKd: −log10 of the molar value.

Legend:
GlnPQ = target: T1, GlnPQ (Listeria monocytogenes, UniProt A0A0H3GES4); assay: radiolabelled uptake by intact bacteria, rapid filtration; assay type: cell-based; conditions: PBS pH 7.4, 1.6 mM MgSO4, 1% glucose, 37 °C; labelled compound; mixed with unlabelled L-glutamine
T1 construct: gene LMRG_02270; native full-length ABC importer in L. monocytogenes cells; uptake compared with glnPQ deletion and complemented strains; glnP locus also printed as LMRG_02770 (apparent misprint)
T1 sequence (A0A0H3GES4 entry or part of it): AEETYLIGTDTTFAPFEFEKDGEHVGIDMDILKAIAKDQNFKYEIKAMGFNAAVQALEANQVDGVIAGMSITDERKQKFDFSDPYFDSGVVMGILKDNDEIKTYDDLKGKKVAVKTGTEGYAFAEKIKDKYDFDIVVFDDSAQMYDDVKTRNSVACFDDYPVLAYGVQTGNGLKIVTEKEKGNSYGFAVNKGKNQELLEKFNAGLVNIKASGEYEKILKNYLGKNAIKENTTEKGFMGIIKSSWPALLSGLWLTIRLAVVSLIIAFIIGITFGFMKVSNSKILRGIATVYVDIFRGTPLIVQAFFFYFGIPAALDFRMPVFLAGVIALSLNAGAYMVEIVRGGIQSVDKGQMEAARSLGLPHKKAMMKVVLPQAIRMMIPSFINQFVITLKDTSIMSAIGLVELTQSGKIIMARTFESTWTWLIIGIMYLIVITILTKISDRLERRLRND
T1 sequence (A0A0H3GF44 entry or part of it, further chain): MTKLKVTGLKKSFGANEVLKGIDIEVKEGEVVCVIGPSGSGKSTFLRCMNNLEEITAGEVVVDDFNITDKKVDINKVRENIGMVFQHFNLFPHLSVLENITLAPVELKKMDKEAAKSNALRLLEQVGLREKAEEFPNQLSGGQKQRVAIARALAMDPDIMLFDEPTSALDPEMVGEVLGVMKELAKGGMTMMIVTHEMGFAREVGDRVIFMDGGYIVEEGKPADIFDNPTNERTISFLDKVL

[1] = target: T2, SBP domain of LMRG_02270 (GlnPQ SBP; GlnP) (Listeria monocytogenes, UniProt A0A0H3GES4); assay: isothermal titration calorimetry; assay type: binding
T2 construct: SBP domain only (residues 29-254), signal peptide (first 28 residues) and transmembrane domain removed; N-terminal His-tag (pET-19b), codon-optimised synthetic gene; E. coli BL21-Gold (DE3); locus also printed as LMRG_02770 (apparent misprint)
T2 sequence (A0A0H3GES4 entry or part of it): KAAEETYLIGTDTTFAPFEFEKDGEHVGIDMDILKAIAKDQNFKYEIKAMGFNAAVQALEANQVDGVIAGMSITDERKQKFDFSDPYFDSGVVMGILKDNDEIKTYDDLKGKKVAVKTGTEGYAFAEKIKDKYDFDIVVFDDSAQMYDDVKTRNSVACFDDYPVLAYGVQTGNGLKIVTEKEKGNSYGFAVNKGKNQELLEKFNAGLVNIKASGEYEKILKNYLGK

SMILES | L-glutamine uptake (GlnPQ) | pKd [1]
NC(=O)CC[C@H](N)C(=O)O [3H L-glutamine] | the rapid uptake of L-glutamine measured in the transport experiments is indeed mediated by an active | 
NC(=O)CC[C@H](N)C(=O)O [L-glutamine] |  | 5.33
